Assay results published in ChEMBL document CHEMBL3046907, “Microwave-assisted synthesis of pyrido[1,2-a]benzimidazole derivatives of -aryloxyquinoline and their antimicrobial and antituberculosis activities” (2013).
In brackets after ≈: the same amount, converted by molar mass.

Key:
Assay type in all cases: functional
[1] = system: Mycobacterium tuberculosis; assay: Growth inhibition of Mycobacterium tuberculosis H37Rv at 6.25 ug/ml after 28 days by Lowenstein-Jensen method; details: 672 h, read-out: GI
[2] = system: Candida albicans; assay: Antifungal activity against Candida albicans MTCC 227 after overnight incubation by broth microdilution method
[3] = system: Aspergillus fumigatus; assay: Antifungal activity against Aspergillus fumigatus MTCC 3008 after overnight incubation by broth microdilution method
[4] = system: Vibrio cholerae; assay: Antibacterial activity against Vibrio cholerae MTCC 3906 after overnight incubation by broth microdilution method
[5] = system: Salmonella typhi; assay: Antibacterial activity against Salmonella enterica subsp. enterica serovar Typhi MTCC 98 after overnight incubation by broth microdilution method
[6] = system: Escherichia coli; assay: Antibacterial activity against Escherichia coli MTCC 443 after overnight incubation by broth microdilution method
[7] = system: Clostridium tetani; assay: Antibacterial activity against Clostridium tetani MTCC 449 after overnight incubation by broth microdilution method
[8] = system: Streptococcus pneumoniae; assay: Antibacterial activity against Streptococcus pneumoniae MTCC 1936 after overnight incubation by broth microdilution method
[9] = system: Bacillus subtilis; assay: Antibacterial activity against Bacillus subtilis MTCC 441 after overnight incubation by broth microdilution method
[10] = system: Mycobacterium tuberculosis; assay: Antitubercular activity against Mycobacterium tuberculosis H37Rv after 28 days by Lowenstein-Jensen method; details: 672 h

SMILES | inhibition of growth at 6.25 µg/mL [1] [%] | MIC99 [2] [µg/mL] | MIC99 [3] [µg/mL] | MIC99 [4] [µg/mL] | MIC99 [5] [µg/mL] | MIC99 [6] [µg/mL] | MIC99 [7] [µg/mL] | MIC99 [8] [µg/mL] | MIC99 [9] [µg/mL] | MIC [10] [µg/mL]
Cc1ccc(Oc2nc3ccccc3cc2-c2c(C#N)c(N)n3c(nc4cc(C)ccc43)c2C#N)cc1 | 12 | 500 (≈ 1040 µM) | 1000 (≈ 2080 µM) | 200 (≈ 416 µM) | 200 (≈ 416 µM) | 62.5 (≈ 130 µM) | 62.5 (≈ 130 µM) | 200 (≈ 416 µM) | 250 (≈ 520 µM) | –
COc1ccc2nc(Oc3ccc(C)cc3)c(-c3c(C#N)c(N)n4c(nc5cc(C)ccc54)c3C#N)cc2c1 | 10 | 1000 (≈ 1960 µM) | > 1000 | 125 (≈ 245 µM) | 100 (≈ 196 µM) | 200 (≈ 392 µM) | 200 (≈ 392 µM) | 100 (≈ 196 µM) | 125 (≈ 245 µM) | –
COc1ccc(Oc2nc3ccc(OC)cc3cc2-c2c(C#N)c(N)n3c(nc4cc(C)ccc43)c2C#N)cc1 | 70 | 500 (≈ 950 µM) | > 1000 | 125 (≈ 237 µM) | 250 (≈ 475 µM) | 200 (≈ 380 µM) | 200 (≈ 380 µM) | 200 (≈ 380 µM) | 100 (≈ 190 µM) | –
COc1ccc2nc(Oc3ccc(F)cc3)c(-c3c(C#N)c(N)n4c(nc5cc(C)ccc54)c3C#N)cc2c1 | 96 | 500 (≈ 972 µM) | 1000 (≈ 1940 µM) | 200 (≈ 389 µM) | 200 (≈ 389 µM) | 100 (≈ 194 µM) | 100 (≈ 194 µM) | 100 (≈ 194 µM) | 250 (≈ 486 µM) | 12.5 (≈ 24.3 µM)
Cc1ccc(Oc2nc3ccccc3cc2-c2c(C#N)c(N)n3c(nc4ccccc43)c2C#N)cc1 | 52 | > 1000 | 250 (≈ 536 µM) | 100 (≈ 214 µM) | 100 (≈ 214 µM) | 100 (≈ 214 µM) | 250 (≈ 536 µM) | 125 (≈ 268 µM) | 250 (≈ 536 µM) | –
COc1ccc(Oc2nc3ccccc3cc2-c2c(C#N)c(N)n3c(nc4ccccc43)c2C#N)cc1 | 24 | 250 (≈ 518 µM) | 500 (≈ 1040 µM) | 125 (≈ 259 µM) | 200 (≈ 415 µM) | 125 (≈ 259 µM) | 250 (≈ 518 µM) | 200 (≈ 415 µM) | 250 (≈ 518 µM) | –
N#Cc1c(-c2cc3ccccc3nc2Oc2ccc(F)cc2)c(C#N)c2nc3ccccc3n2c1N | 75 | 500 (≈ 1060 µM) | 500 (≈ 1060 µM) | 250 (≈ 531 µM) | 250 (≈ 531 µM) | 200 (≈ 425 µM) | 200 (≈ 425 µM) | 125 (≈ 266 µM) | 250 (≈ 531 µM) | –
